Experimental findings from patent US20160052955A1, “[…] INHIBITORS FOR TREATING CANCERS” (SLOAN-KETTERING INSTITUTE FOR CANCER RESEARCH, priority 2013, published 2016) are described below.

Each structure is given as a SMILES string. Some results are limits rather than exact numbers.

Holding throughout (assay type): biochemical
Assay [1] has as its target T1, GLP1 (951-1235) (Homo sapiens, UniProt Q9H9B1).
T1 construct: GLP1 (951-1235)
T1 sequence (Q9H9B1 982-1266): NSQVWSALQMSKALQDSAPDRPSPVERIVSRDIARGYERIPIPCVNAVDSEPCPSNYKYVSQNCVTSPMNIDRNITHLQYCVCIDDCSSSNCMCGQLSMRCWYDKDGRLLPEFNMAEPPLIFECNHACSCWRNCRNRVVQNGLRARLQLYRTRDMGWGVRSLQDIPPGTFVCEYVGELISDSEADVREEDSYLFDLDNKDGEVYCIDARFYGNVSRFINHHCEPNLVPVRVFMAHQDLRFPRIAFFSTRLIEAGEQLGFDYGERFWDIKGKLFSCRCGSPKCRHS
In words: Filter-paper methyltransferase assay, GLP1. As to conditions: substrate H3 (1-21 aa), 10 nM enzyme, 1 h. On the procedure:
(§1) Methylation Reaction. The 20 μL methylation reaction was carried out at ambient temperature using two mixtures: A. 10 μl of enzyme mixture in the assay buffer containing 50 mM Hepes (pH=8.0), 0.005% Tween-20, 5 μg/ml BSA and 1 mM TCEP; B. 10 μl of a mixture of […], 0.15 μCi [^3H-Me]-SAM cofactor and 3 μM of the corresponding peptide substrate in the same assay buffer. After A and B were mixed for a designated time period, the reaction mixture was examined with our filter-paper assay.
(§2) Filter-paper Assay. This assay relies on Whatman P-81 filter paper, which binds peptides but not SAM. Protein Methyl Transferases (PMTs) transfer ^3H-Me of [^3H-Me]-SAM to peptide substrates and the resultant ^3H-methylated, filter-paper-bound peptide is quantified with a scintillation counter. Briefly, 6 μl of the methylation reaction was spotted onto Whatman P-81 phosphocellulose filter paper (1.2×1.2 cm^2) to immobilize the ^3H-labeled peptide. After drying in air for 20 min, the filter paper was immersed into 20 mL of 50 mM Na2CO3/NaHCO3 buffer (pH=9.2), and washed 5 times for 10 min each time. The washed filter paper was then transferred to a 20 ml scintillation vial containing 1 mL of distilled water and 10 mL of Ultima Gold scintillation cocktail or 7 mL scintillation vial containing 0.5 mL od distilled water and 5 mL of scintillation cocktail (PerkinElmer). The radioactivity was quantified by a Beckman LS6000IC liquid scintillation counter.
(§3) Dose-response Curves and IC50. Twice the PMT concentration was incubated for 10 min with varied concentration of inhibitors (0.1-400 μM stocks), into which 10 μl of the PMT peptide substrate and radioactive cofactor (3 μM of the corresponding peptide and 1.5 μM, 0.15 μCi [^3H-Me]-SAM) were added. After incubating the reaction mixture for the respective reaction time, the conversion was quantified with the filter paper assay as described above. The inhibition was expressed as the percentage between the high control (no inhibition) and the low control (no enzyme) as follows: Percentage Inhibition=[(high control−reading)/(high control−low control)]×100%. Each experiment was performed in triplicate. The IC50 values were obtained by fitting inhibition percentage versus inhibitor concentration using GraphPad Prism5 software.

Assay [2] addresses T2, SET8 (191-352) (Homo sapiens, UniProt Q9NQR1).
T2 construct: SET8 (191-352)
T2 sequence (Q9NQR1 191-352 isoform Q9NQR1-2): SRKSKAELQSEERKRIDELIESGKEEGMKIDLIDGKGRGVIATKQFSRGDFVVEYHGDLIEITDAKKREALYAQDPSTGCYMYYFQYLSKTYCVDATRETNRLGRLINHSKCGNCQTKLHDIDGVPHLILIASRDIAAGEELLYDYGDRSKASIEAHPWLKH
In words: Filter-paper methyltransferase assay, SET8. As to conditions: substrate H4 (10-30 aa), 1000 nM enzyme, 8 h.

In assay [3] the target is T3, SETD2 (1347-1711) (Homo sapiens, UniProt Q9BYW2).
T3 construct: SETD2 (1347-1711)
T3 sequence (Q9BYW2 1347-1711): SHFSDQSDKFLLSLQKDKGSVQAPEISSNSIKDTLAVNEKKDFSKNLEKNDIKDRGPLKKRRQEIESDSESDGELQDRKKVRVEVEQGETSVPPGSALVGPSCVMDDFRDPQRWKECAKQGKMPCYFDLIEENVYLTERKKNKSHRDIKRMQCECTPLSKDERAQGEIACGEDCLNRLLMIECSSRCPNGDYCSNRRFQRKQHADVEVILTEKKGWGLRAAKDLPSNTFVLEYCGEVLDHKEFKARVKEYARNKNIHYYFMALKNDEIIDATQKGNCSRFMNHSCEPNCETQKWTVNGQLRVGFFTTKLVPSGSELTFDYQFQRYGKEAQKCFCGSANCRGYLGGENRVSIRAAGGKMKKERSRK
In words: Filter-paper methyltransferase assay, SETD2. As to conditions: substrate H3 (20-50 aa), 250 nM enzyme, 4 h.

In assay [4] the target is T4, PRMT1 (10-352) (Homo sapiens, UniProt Q99873).
T4 construct: PRMT1 (10-352)
The assay can be described thus: Filter-paper methyltransferase assay, PRMT1. Particulars: 100 nm enzyme, substrate RGG, 1.5 h.

In assay [5] the target is T5, CARM1 (19-608) (Homo sapiens, UniProt Q86X55).
T5 construct: CARM1 (19-608)
T5 sequence (Q86X55 19-608): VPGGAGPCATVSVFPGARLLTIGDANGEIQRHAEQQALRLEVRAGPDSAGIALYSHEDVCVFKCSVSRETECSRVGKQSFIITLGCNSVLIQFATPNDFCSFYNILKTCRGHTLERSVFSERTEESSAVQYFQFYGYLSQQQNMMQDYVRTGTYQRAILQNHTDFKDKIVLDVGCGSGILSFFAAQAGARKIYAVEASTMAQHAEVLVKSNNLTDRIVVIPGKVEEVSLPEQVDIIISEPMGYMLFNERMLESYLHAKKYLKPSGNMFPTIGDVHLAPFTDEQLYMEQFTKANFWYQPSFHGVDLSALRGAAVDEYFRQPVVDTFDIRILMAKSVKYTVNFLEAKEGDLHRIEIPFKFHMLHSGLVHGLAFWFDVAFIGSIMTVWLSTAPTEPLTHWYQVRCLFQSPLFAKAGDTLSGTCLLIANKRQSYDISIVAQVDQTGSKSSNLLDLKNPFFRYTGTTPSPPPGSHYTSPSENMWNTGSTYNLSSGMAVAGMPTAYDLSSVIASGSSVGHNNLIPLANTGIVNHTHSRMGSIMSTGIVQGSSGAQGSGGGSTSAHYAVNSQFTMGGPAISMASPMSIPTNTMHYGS
In words: Filter-paper methyltransferase assay, CARM1.

In assay [6] the target is T6, SMYD2 Full-length (Homo sapiens, UniProt Q9NRG4).
T6 construct: SMYD2 Full-length
In words: Filter-paper methyltransferase assay, SMYD2. As to conditions: substrate p53 (360-393 aa), 50 nM enzyme, 10 h; read-out: IC50 SMYD2-FL. On the procedure:
as §1, §2, §3

The target of assay [7] is DOT1L (Homo sapiens, UniProt Q8TEK3). The assay can be described thus: Filter-paper methyltransferase assay, DOT1L.
DOT1L, sequence (Q8TEK3 whole entry): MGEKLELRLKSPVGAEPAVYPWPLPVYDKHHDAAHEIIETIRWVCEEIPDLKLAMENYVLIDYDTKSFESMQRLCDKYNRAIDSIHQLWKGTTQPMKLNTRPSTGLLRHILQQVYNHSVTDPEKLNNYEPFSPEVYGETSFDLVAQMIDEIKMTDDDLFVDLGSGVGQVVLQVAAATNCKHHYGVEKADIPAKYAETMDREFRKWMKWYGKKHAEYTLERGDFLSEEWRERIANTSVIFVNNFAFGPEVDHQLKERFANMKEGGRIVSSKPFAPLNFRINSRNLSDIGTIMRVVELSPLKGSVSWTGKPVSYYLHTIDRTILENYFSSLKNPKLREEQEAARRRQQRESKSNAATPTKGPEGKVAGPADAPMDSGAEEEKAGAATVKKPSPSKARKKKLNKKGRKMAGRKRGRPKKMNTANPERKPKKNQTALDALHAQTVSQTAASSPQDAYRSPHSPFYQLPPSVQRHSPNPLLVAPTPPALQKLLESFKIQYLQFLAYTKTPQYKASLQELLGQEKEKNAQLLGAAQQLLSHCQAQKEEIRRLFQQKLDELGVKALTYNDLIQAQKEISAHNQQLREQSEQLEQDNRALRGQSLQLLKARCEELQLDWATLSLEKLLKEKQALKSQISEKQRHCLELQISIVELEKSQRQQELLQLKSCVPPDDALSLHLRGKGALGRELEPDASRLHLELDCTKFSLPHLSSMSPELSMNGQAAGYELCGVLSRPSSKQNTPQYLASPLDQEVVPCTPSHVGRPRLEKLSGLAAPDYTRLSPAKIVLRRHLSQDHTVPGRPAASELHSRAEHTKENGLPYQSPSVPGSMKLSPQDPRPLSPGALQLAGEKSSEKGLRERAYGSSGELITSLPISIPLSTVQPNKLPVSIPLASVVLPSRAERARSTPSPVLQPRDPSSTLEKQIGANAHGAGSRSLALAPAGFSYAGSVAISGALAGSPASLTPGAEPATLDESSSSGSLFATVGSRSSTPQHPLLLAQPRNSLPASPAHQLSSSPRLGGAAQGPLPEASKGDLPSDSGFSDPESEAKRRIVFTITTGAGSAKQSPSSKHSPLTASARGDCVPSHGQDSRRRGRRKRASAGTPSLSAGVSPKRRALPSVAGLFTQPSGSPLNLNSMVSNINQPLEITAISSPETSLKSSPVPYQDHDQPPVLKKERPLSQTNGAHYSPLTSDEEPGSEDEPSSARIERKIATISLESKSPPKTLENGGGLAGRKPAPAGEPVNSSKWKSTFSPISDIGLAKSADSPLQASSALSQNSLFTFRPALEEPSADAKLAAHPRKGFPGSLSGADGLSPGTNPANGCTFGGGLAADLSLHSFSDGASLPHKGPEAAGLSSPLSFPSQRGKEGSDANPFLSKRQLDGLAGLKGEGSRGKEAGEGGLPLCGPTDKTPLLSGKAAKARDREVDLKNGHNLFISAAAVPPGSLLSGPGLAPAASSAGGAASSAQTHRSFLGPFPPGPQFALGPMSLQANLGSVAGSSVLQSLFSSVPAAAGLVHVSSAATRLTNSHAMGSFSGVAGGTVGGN

T4 sequence (Q99873 10-352 isoform Q99873-3): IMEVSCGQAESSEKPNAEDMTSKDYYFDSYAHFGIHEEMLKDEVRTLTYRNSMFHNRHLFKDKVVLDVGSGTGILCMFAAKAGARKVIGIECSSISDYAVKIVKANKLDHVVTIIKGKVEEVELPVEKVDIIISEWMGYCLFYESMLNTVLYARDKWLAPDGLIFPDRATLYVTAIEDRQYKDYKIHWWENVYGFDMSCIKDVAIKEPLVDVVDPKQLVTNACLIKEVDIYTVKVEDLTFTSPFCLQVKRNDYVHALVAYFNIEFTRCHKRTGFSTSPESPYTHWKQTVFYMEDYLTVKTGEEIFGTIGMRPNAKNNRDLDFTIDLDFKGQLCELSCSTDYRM
T6 sequence (Q9NRG4 whole entry): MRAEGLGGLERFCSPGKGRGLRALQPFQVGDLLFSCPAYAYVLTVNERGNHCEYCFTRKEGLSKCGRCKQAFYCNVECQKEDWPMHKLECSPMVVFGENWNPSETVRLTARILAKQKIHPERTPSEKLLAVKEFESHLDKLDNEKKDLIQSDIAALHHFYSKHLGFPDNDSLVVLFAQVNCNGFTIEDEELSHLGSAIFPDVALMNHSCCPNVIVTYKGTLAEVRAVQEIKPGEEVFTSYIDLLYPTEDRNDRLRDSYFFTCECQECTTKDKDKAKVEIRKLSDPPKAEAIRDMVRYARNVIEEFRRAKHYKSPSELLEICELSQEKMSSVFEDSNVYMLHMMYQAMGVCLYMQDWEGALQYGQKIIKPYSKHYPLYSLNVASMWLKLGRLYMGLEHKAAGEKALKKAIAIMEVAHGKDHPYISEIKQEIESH

Usually IC50 stands for the concentration at which inhibition is half-maximal. Take `CC(C)(C)c1ccc(NC(=O)NCCC[C@H](CNCc2ccccc2)C[C@H]2O[C@@H](n3cnc4c(N)ncnc43)[C@@H](O)C2O)cc1` (stereo partly drawn) [Example 29]: the IC50 was > 100 µM in assay [1]; > 100 µM in assay [2]; > 100 µM in assay [3]; > 100 µM in assay [4]; < 0.2 µM in assay [5] (substrate H3 (1-40 aa), 300 nM enzyme, 7 h, read-out: IC50 CARM1); > 100 µM in assay [6]. Besides, the concentration for half-maximal inhibition (IC50) in assay [7] (substrate nucleosomes, 50 nM enzyme, 6 h) came to 0.17 µM. Moreover, the “inhibitory activity to CARM1 (in words)” value in assay [5] is reported as “remarkable inhibitory activity”. The “inhibitory activity to DOT1L (in words)” value in assay [7] is given as “remarkable inhibitory activity”.
